Source: ChEMBL document CHEMBL4350989, “Discovery of 2,4-diarylaminopyrimidine derivatives bearing dithiocarbamate moiety as novel FAK inhibitors with antitumor and anti-angiogenesis activities” (Eur J Med Chem, 2019)

Legend:
[1] = tested on: MCF-10A; experiment: Cytotoxicity against human MCF10A cells assessed as reduction in cell viability after 72 hrs by MTS assay
[2] = tested on: HCT-116; experiment: Induction of cell cycle arrest in human HCT116 cells assessed as accumulation at G2/M phase at 0.05 uM after 24 hrs by 7-AAD staining-based flow cytometric analysis (reference value: 12.26%); type: functional
[3] = tested on: HCT-116; experiment: Induction of cell cycle arrest in human HCT116 cells assessed as accumulation at G0/G1 phase at 0.1 uM after 24 hrs by 7-AAD staining-based flow cytometric analysis (reference value: 50.53%); type: functional
[4] = tested on: HCT-116; experiment: Induction of cell cycle arrest in human HCT116 cells assessed as accumulation at G2/M phase at 0.1 uM after 24 hrs by 7-AAD staining-based flow cytometric analysis (reference value: 12.26%); type: functional
[5] = tested on: HCT-116; experiment: Induction of cell cycle arrest in human HCT116 cells assessed as accumulation at S phase at 0.1 uM after 24 hrs by 7-AAD staining-based flow cytometric analysis (reference value: 37.20%); type: functional
[6] = tested on: MCF7; experiment: Induction of cell cycle arrest in human MCF7 cells assessed as accumulation at G2/M phase at 0.05 uM after 24 hrs by 7-AAD staining-based flow cytometric analysis (reference value: 11.48%); type: functional
[7] = tested on: MCF7; experiment: Induction of cell cycle arrest in human MCF7 cells assessed as accumulation at G0/G1 phase at 0.01 uM after 24 hrs by 7-AAD staining-based flow cytometric analysis (reference value: 62.45%); type: functional
[8] = tested on: MCF7; experiment: Induction of cell cycle arrest in human MCF7 cells assessed as accumulation at S phase at 0.01 uM after 24 hrs by 7-AAD staining-based flow cytometric analysis (reference value: 26.07%); type: functional
[9] = tested on: MCF7; experiment: Induction of apoptosis in human MCF7 cells assessed as viable cells at 0.005 uM after 24 hrs by Annexin-V and 7-AAD staining based flow cytometric analysis (reference value: 90.2%); type: functional; conditions: MCF7, 24 h, read-out: Activity
[10] = tested on: MCF7; experiment: Induction of apoptosis in human MCF7 cells assessed as early apoptotic cells at 0.005 uM after 24 hrs by Annexin-V and 7-AAD staining based flow cytometric analysis (reference value: 2.04%); type: functional
[11] = tested on: MCF7; experiment: Induction of apoptosis in human MCF7 cells assessed as necrotic cells at 0.005 uM after 24 hrs by Annexin-V and 7-AAD staining based flow cytometric analysis (reference value: 0.16%); type: functional
[12] = tested on: MCF7; experiment: Induction of apoptosis in human MCF7 cells assessed as viable cells at 0.01 uM after 24 hrs by Annexin-V and 7-AAD staining based flow cytometric analysis (reference value: 90.2%); type: functional; conditions: MCF7, 24 h, read-out: Activity
[13] = tested on: MCF7; experiment: Induction of apoptosis in human MCF7 cells assessed as necrotic cells at 0.01 uM after 24 hrs by Annexin-V and 7-AAD staining based flow cytometric analysis (reference value: 0.16%); type: functional
[14] = tested on: MCF7; experiment: Induction of apoptosis in human MCF7 cells assessed as viable cells at 0.05 uM after 24 hrs by Annexin-V and 7-AAD staining based flow cytometric analysis (reference value: 90.2%); type: functional; conditions: MCF7, 24 h, read-out: Activity
[15] = tested on: MCF7; experiment: Induction of apoptosis in human MCF7 cells assessed as late apoptotic cells at 0.05 uM after 24 hrs by Annexin-V and 7-AAD staining based flow cytometric analysis (reference value: 7.63%); type: functional
[16] = tested on: HCT-116; experiment: Induction of apoptosis in human HCT116 cells assessed as early apoptotic cells at 0.005 uM after 24 hrs by Annexin-V and 7-AAD staining based flow cytometric analysis (reference value: 8.11%); type: functional
[17] = tested on: HCT-116; experiment: Induction of apoptosis in human HCT116 cells assessed as necrotic cells at 0.1 uM after 24 hrs by Annexin-V and 7-AAD staining based flow cytometric analysis (reference value: 0.68%); type: functional
[18] = tested on: HCT-116; experiment: Induction of apoptosis in human HCT116 cells assessed as viable cells at 0.05 uM after 24 hrs by Annexin-V and 7-AAD staining based flow cytometric analysis (reference value: 88.6%); type: functional; conditions: HCT-116, 24 h, read-out: Activity

CNC(=O)c1ccccc1Nc1nc(Nc2ccc(C(=O)N3CCN(C(=S)SCCN(C)C)CC3)cc2)ncc1C(F)(F)F
IC50 [1]: 280 nM | Activity [2]: 87.56% | Activity [3]: 5.14% | Activity [4]: 90.46% | Activity [5]: 4.4% | Activity [6]: 86.08% | Activity [7]: 9.52% | Activity [8]: 8.75% | viability at 0.005 µM [9]: 74.2% | Activity [10]: 9.11% | Activity [11]: 0.16% | viability at 0.01 µM [12]: 71.2% | Activity [13]: 0.47% | viability at 0.05 µM [14]: 60.1% | Activity [15]: 25.7% | Activity [16]: 15.9% | Activity [17]: 0% | viability at 0.05 µM [18]: 79.3%
